The text below walks through data of patent US8431565B2 (priority 2007, dated 2013).

As usually defined, the EC50 is the concentration needed to bring the measured effect to its halfway point. A low value points to greater potency.

For this experiment, the target named is T1, rat CB2 receptor (rCB2) (Rattus norvegicus, UniProt Q9QZN9).
T1 sequence (Q9QZN9 1-360): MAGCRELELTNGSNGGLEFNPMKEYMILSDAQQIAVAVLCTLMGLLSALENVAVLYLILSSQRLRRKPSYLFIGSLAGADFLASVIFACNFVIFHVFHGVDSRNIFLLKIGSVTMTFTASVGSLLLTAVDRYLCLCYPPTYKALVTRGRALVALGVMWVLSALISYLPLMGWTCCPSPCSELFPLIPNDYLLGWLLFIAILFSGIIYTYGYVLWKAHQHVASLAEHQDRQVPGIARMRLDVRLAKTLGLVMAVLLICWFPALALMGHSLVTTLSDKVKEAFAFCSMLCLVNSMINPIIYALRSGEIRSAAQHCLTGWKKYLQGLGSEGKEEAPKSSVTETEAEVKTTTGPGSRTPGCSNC
Take `CCS(=O)(=O)N1CCn2c(-c3ccccc3)nc(C(=O)NC3C4(C)CCC(C4)C3(C)C)c2C1` (stereo not shown) [Compound 112, 7-(ethylsulfonyl)-3-phenyl-N-(1,3,3-trimethylbicyclo[2.2.1]heptan-2-yl)-5,6,7,8-tetrahydroimidazo[1,5-a]pyrazine-1-carboxamide]: the EC50 was 10 to 100 nM. `CC(C)CN1CCn2c(-c3ccccc3)nc(C(=O)N[C@@H](C)C(C)(C)C)c2C1` [Compound 53, (S)-N-(3,3-dimethylbutan-2-yl)-7-isobutyl-3-phenyl-5,6,7,8-tetrahydroimidazo[1,5-a]pyrazine-1-carboxamide] displayed an EC50 of 10 to 100 nM.

Take `CNC(=O)[C@@H](NC(=O)c1nc(-c2ccccc2)n2c1CN(Cc1cccn1C)CC2)C(C)(C)C` [Compound 71, (S)-N-(3,3-dimethyl-1-(methylamino)-1-oxobutan-2-yl)-7-((1-methyl-1H-pyrrol-2-yl)methyl)-3-phenyl-5,6,7,8-tetrahydroimidazo[1,5-a]pyrazine-1-carboxamide]: the EC50 lay in the range of 10 to 100 nM. The figure for `Cc1ccc(-c2nc(C(=O)N[C@H](c3nc(C)no3)C(C)(C)C)c3n2CCCN(C)C3)c(F)c1` [Compound 522, (S)-N-(2,2-dimethyl-1-(3-methyl-1,2,4-oxadiazol-5-yl)propyl)-3-(2-fluoro-4-methylphenyl)-8-methyl-6,7,8,9-tetrahydro-5H-imidazo[1,5-a][1,4]diazepine-1-carboxamide] is 10 to 100 nM; for `CC12CCC(C1)C(C)(C)C2NC(=O)c1nc(-c2ccccc2)n2c1CN(C(=O)C1CC1)CC2` (stereo not shown) [Compound 119, 7-(cyclopropanecarbonyl)-3-phenyl-N-(1,3,3-trimethyl-bicyclo[2.2.1]heptan-2-yl)-5,6,7,8-tetrahydroimidazo[1,5-a]pyrazine-1-carboxamide] it is 10 to 100 nM; for `C[C@@H](NC(=O)c1nc(-c2ccccc2)n2c1CN(C(=O)OC(C)(C)C)CC2)C1CCCCC1` [Compound 37, (R)-tert-butyl 1-(1-cyclohexylethylcarbamoyl)-3-phenyl-5,6-dihydroimidazo[1,5-a]pyrazine-7(8H)-carboxylate] it is 10 to 100 nM. For `CNC(=O)[C@@H](NC(=O)c1nc(-c2ccc(C)c(F)c2)n2c1CN(C)CC2)C(C)(C)C` [Compound 240, (S)-N-(3,3-dimethyl-1-(methylamino)-1-oxobutan-2-yl)-3-(3-fluoro-4-methylphenyl)-7-methyl-5,6,7,8-tetrahydroimidazo[1,5-a]pyrazine-1-carboxamide], the EC50 is 10 to 100 nM.

On to `COC(=O)N1CCn2c(-c3ccc(Cl)cc3)nc(C(=O)N[C@H](CO)C(C)(C)C)c2C1` [Compound 184, (S)-methyl 3-(4-chlorophenyl)-1-(1-hydroxy-3,3-dimethylbutan-2-ylcarbamoyl)-5,6-dihydroimidazo[1,5-a]pyrazine-7(8H)-carboxylate], for which the EC50 lay in the range of 10 to 100 nM. `Cc1noc([C@@H](NC(=O)c2nc(-c3ccccc3)n3c2CN(CC2CC2)CC3)C(C)(C)C)n1` [Compound 88, (S)-7-(cyclopropylmethyl)-N-(2,2-dimethyl-1-(3-methyl-1,2,4-oxadiazol-5-yl)propyl)-3-phenyl-5,6,7,8-tetrahydroimidazo[1,5-a]pyrazine-1-carboxamide] yielded an EC50 of 10 to 100 nM. Regarding `CNC(=O)[C@@H](NC(=O)c1nc(-c2ccccc2)n2c1CN(S(=O)(=O)CC(C)C)CC2)C(C)(C)C` [Compound 95, (S)-N-(3,3-dimethyl-1-(methylamino)-1-oxobutan-2-yl)-7-(isobutylsulfonyl)-3-phenyl-5,6,7,8-tetrahydroimidazo[1,5-a]pyrazine-1-carboxamide], the EC50 is 10 to 100 nM. To `Cc1noc([C@@H](NC(=O)c2nc(-c3ccccc3)n3c2CN(C)CC3)C(C)(C)C)n1` [Compound 87, (S)-N-(2,2-dimethyl-1-(3-methyl-1,2,4-oxadiazol-5-yl)propyl)-7-methyl-3-phenyl-5,6,7,8-tetrahydroimidazo[1,5-a]pyrazine-1-carboxamide] belongs 10 to 100 nM; to `CC(C)(C)OC(=O)N1CCn2c(-c3ccccc3)nc(C(=O)NC3CCCCC3)c2C1` [Compound 36, tert-butyl 1-(cyclohexylcarbamoyl)-3-phenyl-5,6-dihydroimidazo[1,5-a]pyrazine-7(8H)-carboxylate], 10 to 100 nM; to `CC(C)CN1CCn2c(-c3ccccc3)nc(C(=O)N[C@@H](C)c3ccccc3)c2C1` [Compound 145, (S)-7-isobutyl-3-phenyl-N-(1-phenylethyl)-5,6,7,8-tetrahydroimidazo[1,5-a]pyrazine-1-carboxamide], 10 to 100 nM. Regarding `CC(C)(C)[C@@H](CO)NC(=O)c1nc(-c2ccccc2)n2c1CN(CC1CC1)CC2` [Compound 84, (S)-7-(cyclopropylmethyl)-N-(1-hydroxy-3,3-dimethylbutan-2-yl)-3-phenyl-5,6,7,8-tetrahydroimidazo[1,5-a]pyrazine-1-carboxamide], the EC50 fell in the range of 10 to 100 nM. The figure for `CNC(=O)[C@@H](NC(=O)c1nc(-c2ccccc2)n2c1CN(S(=O)(=O)c1ccc(C#N)cc1)CC2)C(C)(C)C` [Compound 108, (S)-7-(4-cyanophenylsulfonyl)-N-(3,3-dimethyl-1-(methylamino)-1-oxobutan-2-yl)-3-phenyl-5,6,7,8-tetrahydroimidazo[1,5-a]pyrazine-1-carboxamide] is 10 to 100 nM; for `CNC(=O)[C@@H](NC(=O)c1nc(-c2cc(C(F)(F)F)ccc2F)n2c1CN(C)CC2)C(C)(C)C` [Compound 245, (S)-N-(3,3-dimethyl-1-(methylamino)-1-oxobutan-2-yl)-3-(2-fluoro-5-(trifluoromethyl)phenyl)-7-methyl-5,6,7,8-tetrahydroimidazo[1,5-a]pyrazine-1-carboxamide] it is 10 to 100 nM; for `CNC(=O)[C@@H](NC(=O)c1nc(-c2ccccc2)n2c1CN(CC1CC1)CC2)C(C)(C)C` [Compound 56, (S)-7-(cyclopropylmethyl)-N-(3,3-dimethyl-1-(methylamino)-1-oxobutan-2-yl)-3-phenyl-5,6,7,8-tetrahydroimidazo[1,5-a]pyrazine-1-carboxamide] it is 10 to 100 nM. `CNC(=O)[C@H](CC(C)C)NC(=O)c1nc(-c2ccc(Cl)c(F)c2)n2c1CN(C)CC2` [Compound 277, (S)-3-(4-chloro-3-fluorophenyl)-7-methyl-N-(4-methyl-1-(methylamino)-1-oxopentan-2-yl)-5,6,7,8-tetrahydroimidazo[1,5-a]pyrazine-1-carboxamide]: the EC50 fell in the range of 10 to 100 nM. `CC(C)CN1CCn2c(-c3ccccc3)nc(C(=O)NN3CCCCC3)c2C1` [Compound 155, 7-isobutyl-3-phenyl-N-(piperidin-1-yl)-5,6,7,8-tetrahydroimidazo[1,5-a]pyrazine-1-carboxamide]: the EC50 fell in the range of 0.1 to 10 nM.

Regarding `CC(C)CN1CCn2c(-c3ccccc3)nc(C(=O)Nc3ccccc3)c2C1` [Compound 150, 7-isobutyl-N,3-diphenyl-5,6,7,8-tetrahydroimidazo[1,5-a]pyrazine-1-carboxamide], the EC50 was in the range of 10 to 100 nM. In turn, `CNC(=O)[C@@H](NC(=O)c1nc(-c2ccccc2)n2c1CN(S(C)(=O)=O)CC2)C(C)(C)C` [Compound 92, (S)-N-(3,3-dimethyl-1-(methylamino)-1-oxobutan-2-yl)-7-(methylsulfonyl)-3-phenyl-5,6,7,8-tetrahydroimidazo[1,5-a]pyrazine-1-carboxamide] returned a concentration giving a half-maximal response (EC50) of 10 to 100 nM. `C[C@@H](NC(=O)c1nc(-c2ccccc2)n2c1CN(C(=O)C1CC1)CC2)C1CCCCC1` [Compound 132, (R)-N-(1-cyclohexylethyl)-7-(cyclopropanecarbonyl)-3-phenyl-5,6,7,8-tetrahydroimidazo[1,5-a]pyrazine-1-carboxamide]: the EC50 was 10 to 100 nM. `CC(C)CN1CCn2c(-c3ccccc3)nc(C(=O)NCC3CCOCC3)c2C1` [Compound 167, 7-isobutyl-3-phenyl-N-((tetrahydro-2H-pyran-4-yl)methyl)-5,6,7,8-tetrahydroimidazo[1,5-a]pyrazine-1-carboxamide]: the EC50 lay in the range of 10 to 100 nM.

For the molecule `CNC(=O)[C@@H](NC(=O)c1nc(-c2ccccc2)n2c1CN(Cc1ccco1)CC2)C(C)(C)C` [Compound 64, (S)-N-(3,3-dimethyl-1-(methylamino)-1-oxobutan-2-yl)-7-(furan-2-ylmethyl)-3-phenyl-5,6,7,8-tetrahydroimidazo[1,5-a]pyrazine-1-carboxamide], the EC50 lay in the range of 10 to 100 nM. Molecule `COC(=O)N1CCn2c(-c3ccccc3)nc(C(=O)NC3C4(C)CCC(C4)C3(C)C)c2C1` (stereo not shown) [Compound 178, methyl 3-phenyl-1-(1,3,3-trimethylbicyclo[2.2.1]heptan-2-ylcarbamoyl)-5,6-dihydroimidazo[1,5-a]pyrazine-7(8H)-carboxylate] gave an EC50 of 10 to 100 nM. The molecule `CNC(=O)[C@@H](NC(=O)c1nc(-c2ccccc2)n2c1CN(C(=O)C(C)(C)C)CC2)C(C)(C)C` [Compound 190, (S)-N-(3,3-dimethyl-1-(methylamino)-1-oxobutan-2-yl)-3-phenyl-7-pivaloyl-5,6,7,8-tetrahydroimidazo[1,5-a]pyrazine-1-carboxamide] returned an EC50 of 10 to 100 nM. Consider `CCN1CCn2c(-c3ccccc3)nc(C(=O)NCC3CCOCC3)c2C1` [Compound 168, 7-ethyl-3-phenyl-N-((tetrahydro-2H-pyran-4-yl)methyl)-5,6,7,8-tetrahydroimidazo[1,5-a]pyrazine-1-carboxamide], for which the EC50 lay within 10 to 100 nM.

The molecule `CNC(=O)[C@@H](NC(=O)c1nc(/C=C/CN2CCCC2)n2c1CN(C)CC2)C(C)(C)C` [Compound 288, (S,E)-N-(3,3-dimethyl-1-(methylamino)-1-oxobutan-2-yl)-7-methyl-3-(3-(pyrrolidin-1-yl)prop-1-enyl)-5,6,7,8-tetrahydroimidazo[1,5-a]pyrazine-1-carboxamide] yielded an EC50 of 0.1 to 10 nM.
